From patent US20040029208A1, “Assay method and kit for testing biological material for exposure to stress using biomarkers” (priority 2000, published 2004)

Legend:
all tested plants = assay: Most frequent TLC biomarker pattern of all tested plants; format: in vivo; details: stability experiments
From the text: By th term “standard biomarker pattern” is m ant a patternd of the composition of compounds present in a plant after exposure to known stress factors. According to th invention th biomarker pattern of the unknown compounds, i.e. the above described biomarker pattern, is correlated to a standard biomarker pattern, also referred to as a “most frequent pattern”. In order to interpret the biomarker patterns of test material that has been exposed to unknown stress factors, it is a prerequisite to provide standard biomarker patterns, i.e. most frequent patterns. By the latter is meant the same type of biomarker pattern obtained after exposure to a stress factor in more than 50% of the cases of exposure, such as 60%, for example 70%, such as 80%, for example 90%. The biomarker patterns of test material that has been exposed to unknown stress factors may then be correlated to standard biomarker patterns. The standard biomarker pattern may be obtained for one particular stress factor or for a combination of at least two different stress factors.
The study was performed in greenhouse between August and December 1998 for all species. Degree days (=(Present temperature in ° C.-5° C.)×amount of days) were used as time scale. […] Before the harvest, the plants were evaluated for visual effects using the rating chart described in Table 1 (Hamit et al., 1977). […]

Plantágo lanceoláta = assay: Visual effect rating (0-9) after herbicide spraying; format: in vivo
From the text: (§1) Four, eight, sixteen and thirty two days after spraying, visual effects on plants were noted before harvest, using the rating chart described in Hamil. et al. (1977) and Boutin et al. (1993); a rating of zero indicates full growth and vigour, and a rating of nine indicates no growth/mortality.
(§2) The min. visual effect (VE) of the presence of plant biomarkers is rated as described by Hamil et al., (1977) and Boutin et al. (1993).

Centauréa cýanus [1] = assay: as above; format: in vivo
From the text: as §1, §2

Lólium perénne = assay: as above; format: in vivo; details: Roundup Bio, Lólium perénne
From the text: as §1, §2

Anagallis arvensis = assay: as above; format: in vivo; details: Roundup Bio, Anagallis arvensis
From the text: as §1, §2

Centauréa cýanus [2] = assay: TLC plant biomarker pattern after herbicide spraying (greenhouse); format: in vivo
tobacco cell cultures = details: two cell lines, in the presence of glyphosate; cited from earlier work

O=C(O)CNCP(=O)(O)O [Glyphosate]
time after exposure at which phytochemical changes were seen (all tested plants; 60 degree days): 4 days | time after exposure up to which a phytochemical pattern was present (all tested plants; 480 degree days): up to 32 days | Min. visual effect (Plantágo lanceoláta; at presence of TLC 1 biomarker): 0 | Min. visual effect (Plantágo lanceoláta; at presence of TLC 6 biomarker): 4 | Min. visual effect (Centauréa cýanus [1]; at presence of TLC 1 biomarker): 3 | Min. visual effect (Centauréa cýanus [1]; at presence of TLC 6 biomarker): 3 | Min. visual effect (Centauréa cýanus [1]; at presence of TLC 7 biomarker): 3 | VE: corresponding visual effect (Lólium perénne): 0 | VE: corresponding visual effect (Anagallis arvensis): 0 | Min. of label dose of herbicide with effect (Centauréa cýanus [2]; TLC 1 (non-specific compounds)): 10% | Min. of label dose of herbicide with effect (Centauréa cýanus [2]; TLC 6 (lipids and terpens)): 10% | Min. of label dose of herbicide with effect (Centauréa cýanus [2]; TLC 7 (non-specific compounds)): 10% | increase of levels of free shikimic acid (tobacco cell cultures): more than 300 fold
